In one series the target is T1, OATP1B3 (Homo sapiens, UniProt Q9NPD5).
T1 sequence (Q9NPD5 1-702): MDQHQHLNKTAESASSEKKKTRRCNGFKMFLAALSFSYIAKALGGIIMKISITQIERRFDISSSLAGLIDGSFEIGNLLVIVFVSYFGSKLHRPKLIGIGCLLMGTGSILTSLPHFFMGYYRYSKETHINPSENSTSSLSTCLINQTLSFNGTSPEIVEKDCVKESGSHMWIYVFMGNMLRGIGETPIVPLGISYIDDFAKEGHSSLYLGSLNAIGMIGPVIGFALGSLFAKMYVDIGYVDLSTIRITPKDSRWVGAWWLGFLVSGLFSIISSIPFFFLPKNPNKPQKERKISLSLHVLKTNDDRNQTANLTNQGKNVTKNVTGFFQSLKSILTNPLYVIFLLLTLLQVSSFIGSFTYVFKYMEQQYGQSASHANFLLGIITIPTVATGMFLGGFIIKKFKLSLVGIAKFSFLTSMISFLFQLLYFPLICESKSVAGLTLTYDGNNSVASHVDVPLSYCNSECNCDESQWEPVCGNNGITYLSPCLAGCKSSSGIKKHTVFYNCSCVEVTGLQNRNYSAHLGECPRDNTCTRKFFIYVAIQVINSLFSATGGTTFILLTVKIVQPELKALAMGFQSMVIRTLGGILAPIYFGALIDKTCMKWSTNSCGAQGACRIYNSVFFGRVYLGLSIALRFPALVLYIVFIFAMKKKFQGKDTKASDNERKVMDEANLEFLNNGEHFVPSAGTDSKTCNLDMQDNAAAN
To be noted: for classification as OATP1B3 inhibitor/stimulator (single-point): 20 μM.

The target in another series is T2, OATP1B1 (Homo sapiens, UniProt Q9Y6L6).
T2 sequence (Q9Y6L6 1-691): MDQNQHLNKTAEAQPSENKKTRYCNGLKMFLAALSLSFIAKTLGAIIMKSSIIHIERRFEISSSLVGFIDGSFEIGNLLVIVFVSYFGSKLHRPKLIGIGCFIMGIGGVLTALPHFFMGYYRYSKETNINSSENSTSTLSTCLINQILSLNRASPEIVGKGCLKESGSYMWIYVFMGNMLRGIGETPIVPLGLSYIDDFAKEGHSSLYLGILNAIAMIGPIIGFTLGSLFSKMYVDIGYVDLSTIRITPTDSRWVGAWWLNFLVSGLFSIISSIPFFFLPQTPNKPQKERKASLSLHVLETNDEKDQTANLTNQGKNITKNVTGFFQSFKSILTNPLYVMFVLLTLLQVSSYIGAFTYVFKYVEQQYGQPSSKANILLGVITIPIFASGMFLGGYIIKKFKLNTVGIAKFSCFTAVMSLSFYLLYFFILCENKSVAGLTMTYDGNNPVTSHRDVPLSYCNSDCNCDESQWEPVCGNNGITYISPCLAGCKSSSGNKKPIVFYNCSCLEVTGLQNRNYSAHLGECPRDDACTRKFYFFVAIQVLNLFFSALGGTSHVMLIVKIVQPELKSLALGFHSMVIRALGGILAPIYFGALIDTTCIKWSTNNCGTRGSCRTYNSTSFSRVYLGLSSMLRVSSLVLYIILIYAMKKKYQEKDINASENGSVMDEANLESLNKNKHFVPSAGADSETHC

The target of series [1] is T3, OATP2B1 (Homo sapiens, UniProt O94956).
T3 sequence (O94956 1-709): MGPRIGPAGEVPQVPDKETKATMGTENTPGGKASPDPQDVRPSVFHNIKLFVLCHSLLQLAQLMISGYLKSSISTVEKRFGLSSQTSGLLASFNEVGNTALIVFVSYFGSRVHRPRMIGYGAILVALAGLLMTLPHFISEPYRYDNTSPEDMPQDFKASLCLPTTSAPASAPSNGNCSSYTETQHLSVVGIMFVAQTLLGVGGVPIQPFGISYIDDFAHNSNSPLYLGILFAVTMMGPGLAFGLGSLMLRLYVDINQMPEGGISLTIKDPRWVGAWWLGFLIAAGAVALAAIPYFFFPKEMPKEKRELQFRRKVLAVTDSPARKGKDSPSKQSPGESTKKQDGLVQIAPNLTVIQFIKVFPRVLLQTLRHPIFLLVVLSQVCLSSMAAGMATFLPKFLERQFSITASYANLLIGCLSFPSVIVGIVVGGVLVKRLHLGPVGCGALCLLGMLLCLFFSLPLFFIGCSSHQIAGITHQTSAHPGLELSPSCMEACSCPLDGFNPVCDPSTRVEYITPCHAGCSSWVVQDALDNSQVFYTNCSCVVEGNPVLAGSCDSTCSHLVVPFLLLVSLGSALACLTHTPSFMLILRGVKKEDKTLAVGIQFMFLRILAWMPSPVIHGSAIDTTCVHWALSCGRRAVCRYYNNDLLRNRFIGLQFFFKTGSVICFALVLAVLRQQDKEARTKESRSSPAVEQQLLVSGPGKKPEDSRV
To be noted: for classification as OATP2B1 inhibitor/stimulator (single-point): 20 μM.

The subject of series [2] is OATP1B1, OATP1B3, and OATP2B1. As to the kind of experiment: Classification of specific and general OATP inhibitors. To be noted: 20 μM, inhibitor = at least 50% inhibition.
In another series the test system is BCRP. The settings on record: cited from earlier work.
Series [3] has as its target T3, OATP2B1. As to the kind of experiment: Transport kinetics of substrate uptake in OATP2B1-HEK293 cells. The series is classed as cell-based.
Setting [4] is: OATP2B1 mediated uptake, HEK293.

Entries after “also recorded” stand apart in the source; their conditions may differ. Read-outs that look alike come from different tables or passages of the source. *1 amine or outer side, *2 acyl side, *3 side chain or, on linkers, in order; H or OH if unused. Where a SMILES comes first, the peptide text is derived from it. Bridges are numbered along the chain shown (N, C = ends). [ ]: non-standard residue; d: D form. X1 = O=C([C@@H](N[*:1])c1c([*:3])[nH]c2ccccc12)[*:2]; Leu(4R-OH,5-OH) = C[C@](O)(CO)C[C@H](N)C(=O)O; cisHyp = O=C(O)[C@@H]1C[C@H](O)CN1

`N[C@@H]1C[C@H]1c1ccccc1` (racemic) [Tranylcypromine]: the “OATP1B3 Inhib %” value on OATP1B3 is given as -9.3%. The “OATP1B1 Inhib %” value at OATP1B1 is on record as -9.5%. Further, the “OATP2B1 Inhib %” value on OATP2B1 [1] amounted to 15.5%.

For `OCCN1CCN(CCC=C2c3ccccc3Sc3ccc(C(F)(F)F)cc32)CC1` [Flupenthixol], the “OATP1B3 Inhib %” value on OATP1B3 (human) is listed as 13.5%. In addition, the “OATP2B1 Inhib %” value at OATP2B1 [1] (human) is on record as 9.5%.

For the molecule `CCOc1ccc(-c2nc3cc(-c4nc5cc(N6CCN(C)CC6)ccc5[nH]4)ccc3[nH]2)cc1` [Hoechst 33342], in series [2], the “OATP inhibitor classification based on single-point inhibition assays” value (from here on “OATP inhibitor classification based”) is listed as “OATP1B3, only three specific inhibitors”.

As to `COc1ccc2c3c([nH]c2c1)[C@H](CC(C)C)N1C(=O)[C@H](CCC(=O)OC(C)(C)C)NC(=O)[C@@H]1C3` [KO143], in the series on BCRP, the “concentration that completely inhibits BCRP” value was 1 µM.

For `CN(C)c1ccc(C=Cc2cc[n+](C)cc2)cc1` [N-methylpyridinium, ASP+], the “OATP1B3 Inhib %” value on OATP1B3 was -2.3%. The “OATP1B1 Inhib %” value at OATP1B1 is 27.9%. At OATP2B1 [1], the “OATP2B1 Inhib %” value was found to be 12.8%.

`O=C(O)C(=O)O.[NH-][C@@H]1CCCC[C@H]1[NH-].[Pt+2]` [Oxaliplatin]: on OATP1B3, the “OATP1B3 Inhib %” value stood at 9.9%. Also, at OATP1B1, the “OATP1B1 Inhib %” value was 13.0%. The “OATP2B1 Inhib %” value on OATP2B1 [1] is reported as 8.2%.

On to `C[C@@H]1NC(=O)[C@H](C[C@@](C)(O)CO)NC(=O)[C@H]2NC(=O)[C@H](C)NC(=O)[C@@H]3C[C@H](O)CN3C(=O)[C@@H](CSc3[nH]c4ccccc4c32)NC(=O)[C@H]([C@@H](C)O)NC1=O` [Phalloidin] (cyclo(AT[dC][cisHyp]A[X1][Leu(4R-OH,5-OH)]); thioether 3-6), for which the “OATP1B3 Inhib %” value on OATP1B3 (human) is 36.2%. Also, on OATP2B1 [1] (human), the “OATP2B1 Inhib %” value came out at 24.1%.

In the case of `COC(=O)N[C@H](C(=O)N[C@@H](Cc1ccccc1)[C@@H](O)CN(Cc1ccc(-c2ccccn2)cc1)NC(=O)[C@@H](NC(=O)OC)C(C)(C)C)C(C)(C)C` [atazanavir, Atazanavir], in series [2], the “OATP inhibitor classification based” value is listed as “general OATP inhibitors”.

In the case of `Clc1ccccc1C(c1ccccc1)(c1ccccc1)n1ccnc1` [clotrimazole, Clotrimazole], the “classification as OATP1B3 inhibitor/stimulator (single-point)” value on OATP1B3 is recorded as “stimulator”.

For `COc1cccc2c1C(=O)c1c(O)c3c(c(O)c1C2=O)C[C@@](O)(C(=O)CO)C[C@@H]3O[C@H]1C[C@H](N)[C@H](O)[C@H](C)O1` [doxorubicin, Doxorubicin], in series [2], the “OATP inhibitor classification based” value was “specific inhibitors of one of the OATP transporters”.

In the case of `C#Cc1cccc(Nc2ncnc3cc(OCCOC)c(OCCOC)cc23)c1` [erlotinib, Erlotinib], the “OATP inhibitor classification based” value in series [2] was “specific inhibitors of one of the OATP transporters”.

Take `C[C@]12CC[C@@H]3c4ccc(OS(=O)(=O)O)cc4CC[C@H]3[C@@H]1CCC2=O` [estrone-3-sulfate]: at OATP2B1 [3] (setting [4]), the Km was 38.2 ± 10.2 µM and the Vmax is reported as 455.2 ± 55.36 pmol/mg protein/min. In addition, the “mean uptake of model substrate in OATP2B1 expressing HEK293 cells compared to passive uptake in mock-transfected cells” value at OATP2B1 [3] (n = 51 experiments) was found to be 44 times.

As for `CC(NCCC(c1ccccc1)c1ccccc1)c1ccccc1` (stereo not drawn) [fendiline, Fendiline], on OATP2B1 [1], the “classification as OATP2B1 inhibitor/stimulator (single-point)” value is recorded as “stimulate”.

For `COc1ccc2c(c1)c(CC(=O)O)c(C)n2C(=O)c1ccc(Cl)cc1` [indometacin, Indomethacin], the “OATP inhibitor classification based” value in series [2] is reported as “specific inhibitors of one of the OATP transporters”.

As to `CC[C@H](C)C(=O)O[C@H]1C[C@@H](C)C=C2C=C[C@H](C)[C@H](CC[C@@H](O)C[C@@H](O)CC(=O)O)[C@H]21` [lovastatin acid], in series [2], the “OATP inhibitor classification based” value is on record as “specific OATP1B1 inhibitors”.

Regarding `O=C1c2c(O)ccc(O)c2C(=O)c2c(NCCNCCO)ccc(NCCNCCO)c21` [mitoxantrone, Mitoxantrone], the “OATP inhibitor classification based” value in series [2] is “OATP1B3, only three specific inhibitors”.

Turning to `CCc1nn(CCCN2CCN(c3cccc(Cl)c3)CC2)c(=O)n1CCOc1ccccc1` [nefazodone, Nefazodone], at OATP1B3, the “classification as OATP1B3 inhibitor/stimulator (single-point)” value is on record as “inhibitor”. The “classification as OATP1B1 inhibitor/stimulator (single-point)” value on OATP1B1 (20 μM) is reported as “not interacting”. The “classification as OATP2B1 inhibitor/stimulator (single-point)” value at OATP2B1 [1] was “inhibitor”.

For `C[C@@H]1[C@H](O)[C@@H](C)/C=C/C=C/CC/C=C/C=C/C=C/C=C/C(O[C@H]2O[C@H](C)[C@@H](O)[C@H](N)[C@@H]2O)CC2O[C@](O)(CC(O)C(O)CCC(O)CC(O)CC(O)CC(=O)O[C@H]1C)CC(O)C2C(=O)O` (stereo partly drawn) [nystatin, Nystatin], on OATP1B3, the “OATP1B3 Inhib %” value was determined as 74.9%. For the same molecule, on OATP2B1 [1], the “OATP2B1 Inhib %” value was 23.4%.

In the case of `CC[C@H](C)C(=O)O[C@H]1C[C@H](O)C=C2C=C[C@H](C)[C@H](CC[C@@H](O)C[C@@H](O)CC(=O)O)[C@H]21` [pravastatin, Pravastatin], the “OATP inhibitor classification based” value in series [2] is reported as “specific inhibitors of one of the OATP transporters”; in series [2] (listed as pravastatin acid), “specific OATP1B1 inhibitors”.

Consider `CC(=O)[C@H]1CC[C@H]2[C@@H]3CCC4=CC(=O)CC[C@]4(C)[C@H]3CC[C@]12C` [progesterone, Progesterone], for which, at OATP2B1 [1], the “classification as OATP2B1 inhibitor/stimulator (single-point)” value is given as “stimulate”.

Turning to `CCC(C)(C)C(=O)O[C@H]1C[C@@H](C)C=C2C=C[C@H](C)[C@H](CC[C@@H](O)C[C@@H](O)CC(=O)O)[C@H]21` [simvastatin acid], in series [2], the “OATP inhibitor classification based” value is on record as “specific OATP1B1 inhibitors”.

`O=C(O)c1cc(/N=N/c2ccc(S(=O)(=O)Nc3ccccn3)cc2)ccc1O` [sulfasalazine, Sulfasalazine]: the “OATP inhibitor classification based” value in series [2] was “general OATP inhibitors”.

`C[C@]12CC[C@H]3[C@@H](CCC4=CC(=O)CC[C@@]43C)[C@@H]1CC[C@@H]2O` [testosterone, Testosterone]: on OATP2B1 [1], the “classification as OATP2B1 inhibitor/stimulator (single-point)” value is on record as “stimulate”.

For `CC[C@]1(O)C[C@H]2CN(CCc3c([nH]c4ccccc34)[C@@](C(=O)OC)(c3cc4c(cc3OC)N(C=O)[C@H]3[C@@](O)(C(=O)OC)[C@H](OC(C)=O)[C@]5(CC)C=CCN6CC[C@]43[C@@H]65)C2)C1` [vincristine, Vincristine], the “OATP inhibitor classification based” value in series [2] is listed as “specific inhibitors of one of the OATP transporters; also recorded: OATP1B3, only three specific inhibitors”; in series [2] (listed as Vincristine) it was “specific inhibitor of OATP1B3”.

For Olmesartan, the “OATP2B1 Inhib %” value on OATP2B1 [1] is -7.9%.

In the case of “cholecystokinin octapeptide [cholecystokinin octapeptide (CCK-8)]”, the “OATP1B3 Inhib %” value with OATP1B3 was 96.9%. Also, in the series with OATP2B1 [1], the “OATP2B1 Inhib %” value was determined as 60.1%.

The term Km denotes the concentration of substrate that gives half-maximal velocity.

The values above are taken from paper PMC3361267 (Journal of Medicinal Chemistry, 2012).
